Data reported in US8247556B2, “Method for preparing 6-substituted-7-aza-indoles” (Amgen Inc., priority 2005, dated 2012).

Experiments:
[1] = test system: VEGF-stimulated HUVEC proliferation (Human Umbilical Vein Endothelial cells); experiment: HUVEC Proliferation Assay; type: cell-based; conditions: VEGF 50 ng/mL, 72 h, CyQuant fluorescent dye, read-out: inhibited VEGF-stimulated HUVEC proliferation at a level
Summary of the method: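 HUVEC (passage 2–3) were seeded in DMEM+10% FBS for 22 h, then pre-incubated 2–3 h with 5-point, 5-fold compound dilutions (0.25% DMSO). They were then stimulated with VEGF (50 ng/mL final) for 72 h at 37 °C. Proliferation was read by CyQuant fluorescence (485/530 nm) after freeze-thaw, and IC50 came from a 4-parameter fit.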

CYP 3A4 = target: T1, CYP 3A4 (Homo sapiens, UniProt P08684); experiment: Human Liver Microsome CYP 3A4 Inhibition; type: in vitro ADME; conditions: human liver microsomes, midazolam substrate; read-out: inhibited CYP3A4 microsomes, IC50
T1 construct: followed by 222.2 ml of 20 mg/mL HLM (BD Gentest); tissue BD Gentest; host or cells: human liver microsomes
T1 sequence (P08684 whole entry): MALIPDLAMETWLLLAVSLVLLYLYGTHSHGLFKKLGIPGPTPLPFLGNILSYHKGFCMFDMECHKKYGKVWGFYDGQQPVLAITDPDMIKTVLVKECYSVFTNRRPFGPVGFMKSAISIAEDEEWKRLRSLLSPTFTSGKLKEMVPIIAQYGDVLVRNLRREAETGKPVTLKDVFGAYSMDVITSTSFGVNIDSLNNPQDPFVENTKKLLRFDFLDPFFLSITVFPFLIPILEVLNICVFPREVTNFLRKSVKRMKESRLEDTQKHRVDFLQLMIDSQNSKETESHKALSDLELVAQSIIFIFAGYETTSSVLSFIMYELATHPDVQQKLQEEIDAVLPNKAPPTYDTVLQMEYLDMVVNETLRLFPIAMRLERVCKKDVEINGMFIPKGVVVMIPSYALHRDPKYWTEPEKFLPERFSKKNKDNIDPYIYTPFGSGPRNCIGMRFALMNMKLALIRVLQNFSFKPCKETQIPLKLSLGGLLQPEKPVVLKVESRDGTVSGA
Protocol: Determining the IC-50 for Human Liver Microsome CYP 3A4 Inhibition
Postassium Phosphate Buffer pH 7.4 (39.667 mL) is chilled in an ice bath and added to a 50 ml plastic tube. A 2 mM midazolam solution is prepared. 111.1 ul of 2 mM midazolam is added to the buffer followed by 222.2 ml of 20 mg/mL HLM (BD Gentest). The incubation mixture was gently inverted and equilibrated at 37° C. for 5 min. A stock inhibitor solution is prepared, such as in DMSO. Incubation mixture (801 ul) is added into 96-well, 1.2 mL plastic tubes. Inhibitor is added at various concentrations (e.g. 30 uM to 120 nM). The tubes are sealed and mix by inverting 5 times gently. The incubation mixture containing inhibitor (270 uL) is added by aliquot into wells of a 1 mL, 96-well block (duplicate). The block is placed into a 37° C. water bath and equilibrated for 3 min. 10 mM NADPH (30 ml) is added to all samples. After 5 minutes, the reactions are stopped by adding 300 ml of Quench Solution [0.1% TFA in CH3CN]. 1′-OH-Midazolam-d313C (2 mg/mL 30 uL) is added, the block is gently vortexed then centrifuged at 3000 rpm for 10 minutes at 4° C. 50 μL of supernatant from all samples is added by aliquot into a shorter, 96-well block. The aliquoted supernatants are pooled with other assay(s) and HPLC Grade Water (50 ul) is added to all samples. After covering and shaking by vortex gently for 2 minutes, the solutions were analyzed by LC-MS (API 3000,5% MeOH w/0.1% AcOH to 95% MeOH w/0.1% AcOH). 37 nM ketoconazole is used as a control.

CYP 2D6 = target: T2, CYP 2D6 (Homo sapiens, UniProt P10635); experiment: Human Liver Microsome CYP 2D6 Inhibition; type: in vitro ADME; conditions: human liver microsomes, bufuralol substrate; read-out: inhibited CYP2D6 microsomes, IC50
T2 construct: followed by 555.6 ml of 20 mg/mL HLM (BD Gentest); tissue BD Gentest; host or cells: human liver microsomes
T2 sequence (P10635 whole entry): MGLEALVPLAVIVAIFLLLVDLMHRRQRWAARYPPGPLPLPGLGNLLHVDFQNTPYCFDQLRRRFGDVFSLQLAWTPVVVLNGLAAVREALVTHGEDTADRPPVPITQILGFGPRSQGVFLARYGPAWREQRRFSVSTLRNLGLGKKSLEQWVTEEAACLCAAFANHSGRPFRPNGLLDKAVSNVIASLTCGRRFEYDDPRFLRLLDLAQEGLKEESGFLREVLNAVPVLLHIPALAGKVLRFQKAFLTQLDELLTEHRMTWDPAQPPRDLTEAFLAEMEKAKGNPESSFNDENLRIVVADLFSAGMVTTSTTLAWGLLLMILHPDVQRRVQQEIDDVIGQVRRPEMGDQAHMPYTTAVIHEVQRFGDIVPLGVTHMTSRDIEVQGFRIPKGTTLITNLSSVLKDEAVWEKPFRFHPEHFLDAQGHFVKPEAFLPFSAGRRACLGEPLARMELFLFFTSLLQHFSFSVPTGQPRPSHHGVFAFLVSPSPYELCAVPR
Summary of the method: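 Pooled human liver microsomes with bufuralol in potassium phosphate pH 7.4, preincubated with inhibitor at 37 °C; reaction started with NADPH, quenched after 5 min with 0.1% TFA in acetonitrile. 1′-OH-bufuralol quantified by LC-MS with deuterated internal standard; IC50 determined, quinidine 500 nM as control.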

Structure (SMILES)	IC50 (CYP 3A4)	IC50 (CYP 2D6)	IC50 [1]
CC(C)(C)c1ccc(NC(=O)c2cccnc2NCc2ccnc3c2CCN3)cc1 [Example 28, N-(4-tert-Butylphenyl)-2-[(2,3-dihydro-1H-pyrrolo[2,3-b]pyridin-4-ylmethyl)amino]nicotinamide]	> 20 µM	> 20 µM	< 0.5 µM
CC(C)(C)c1cc(NC(=O)c2cccnc2NCc2ccnc3[nH]ccc23)no1 [Example 49, N-(5-tert-butylisoxazol-3-yl)-2-[(1H-pyrrolo[2,3-b]pyridin-4-ylmethyl)amino]nicotinamide]	> 20 µM	> 20 µM	< 0.5 µM
O=C(Nc1ccc2c(c1)CNCC21CC1)c1cccnc1NCc1ccnc2[nH]ccc12 [Example 10, N-(4-Spiro-1′-cyclopropane-1,2,3,4-tetrahydroisoquinolin-7-yl)-2-[(1H-pyrrolo[2,3-b]pyridin-4-ylmethyl)amino]nicotinamide]	> 20 µM	> 20 µM	< 0.5 µM
O=C(Nc1ccc2ccccc2c1)c1cccnc1NCc1ccnc2[nH]ccc12 [Example 50, N-Naphthalen-2-yl-2-[(1H-pyrrolo[2,3-b]pyridin-4-ylmethyl)-amino]-nicotinamide]	> 20 µM	> 20 µM	< 0.5 µM
CC1(C)CNc2cc(NC(=O)c3cccnc3NCc3ccnc4[nH]ccc34)ccc21 [Example 16, N-(3,3-Dimethyl-2,3-dihydro-1H-indol-6-yl)-2-[(1H-pyrrolo[2,3-b]pyridin-4-ylmethyl)amino]nicotinamide]	> 20 µM	> 20 µM	< 0.5 µM
Cc1nc2cc(NC(=O)c3cccnc3NCc3ccnc4[nH]ccc34)ccc2s1 [Example 48, N-(2-methyl-1,3-benzothiazol-5-yl)-2-[(1H-pyrrolo[2,3-b]pyridin-4-ylmethyl)amino]nicotinamide]	> 20 µM	> 20 µM	< 0.5 µM
CC1(C)CN(C(=O)[C@@H]2CCCO2)c2cc(NC(=O)c3cccnc3NCc3ccnc4[nH]ccc34)ccc21 [Example 34, N-{3,3-dimethyl-1-[(2S)-tetrahydrofuran-2-ylcarbonyl]-2,3-dihydro-1H-indol-6-yl}-2-[(1H-pyrrolo[2,3-b]pyridin-4-ylmethyl)amino]nicotinamide]	> 20 µM	> 20 µM	< 0.5 µM
CC1(C)CNc2cc(NC(=O)c3cccnc3NCc3ccnc4c3CCN4)ccc21 [Example 32, 2-[(2,3-Dihydro-1H-pyrrolo[2,3-b]pyridin-4-ylmethyl)amino]-N-(3,3-dimethyl-2,3-dihydro-1H-indol-6-yl)nicotinamide]	> 20 µM	> 20 µM	< 0.5 µM
CC(C)(C)c1ccc(NC(=O)c2cccnc2NCc2ccnc3[nH]ccc23)cc1 [Example 5, N-(4-tert-Butylphenyl)-2-[(1H-pyrrolo[2,3-b]pyridin-4-ylmethyl)amino]nicotinamide]	> 20 µM	> 20 µM	< 0.5 µM
CC1(C)CCNc2cc(NC(=O)c3cccnc3NCc3ccnc4[nH]ccc34)ccc21 [Example 9, N-(4,4-Dimethyl-1,2,3,4-tetrahydroquinolin-7-yl)-2-[(1H-pyrrolo[2,3-b]pyridin-4-ylmethyl)amino]nicotinamide]	> 20 µM	> 20 µM	< 0.5 µM
CC1(C)CNC(=O)c2cc(NC(=O)c3cccnc3NCc3ccnc4[nH]ccc34)ccc21 [Example 56, N-(4,4-Dimethyl-1-oxo-1,2,3,4-tetrahydro-isoquinolin-7-yl)-2-[(1H-pyrrolo[2,3-b]pyridin-4-ylmethyl)-amino]-nicotinamide]	> 20 µM	> 20 µM	< 0.5 µM

Further lines, with some results ahead:

IC50 (CYP 3A4)	IC50 (CYP 2D6)	Structure (SMILES)	IC50 [1]
> 20 µM	> 20 µM	CC(C)c1ccc(NC(=O)c2cc(F)cnc2NCc2ccnc3[nH]ncc23)cc1 [Example 123, 5-Fluoro-N-(4-(1-methylethyl)phenyl)-2-((1H-pyrazolo[3,4-b]pyridin-4-ylmethyl)amino)-3-pyridinecarboxamide]	< 0.5 µM
> 20 µM	> 20 µM	O=C(Nc1ccc(C(F)(F)F)cc1)c1cccnc1NCc1ccnc2[nH]ccc12 [Example 66, 2-[(1H-Pyrrolo[2,3-b]pyridin-4-ylmethyl)-amino]-N-(4-trifluoromethyl-phenyl)-nicotinamide]	< 0.5 µM
> 20 µM	> 20 µM	O=C(Nc1ccc(OC(F)(F)F)cc1)c1cc(F)cnc1NCc1ccnc2[nH]ccc12 [Example 96, 5-fluoro-2-((1H-pyrrolo[2,3-b]pyridin-4-ylmethyl)amino)-N-(4-((trifluoromethyl)oxy)phenyl)-3-pyridinecarboxamide]	< 0.5 µM
> 20 µM	> 20 µM	O=C(Nc1ccc(C(F)(F)F)cc1)c1cc(F)cnc1NCc1ccnc2[nH]ncc12 [Example 118, 5-Fluoro-2-((1H-pyrazolo[3,4-b]pyridin-4-ylmethyl)amino)-N-(4-(trifluoromethyl)phenyl)-3-pyridinecarboxamide]	< 0.5 µM
> 20 µM	> 20 µM	Cc1ccc(NC(=O)c2cc(F)cnc2NCc2ccnc3[nH]ccc23)cc1C(F)(F)F [Example 112, 5-fluoro-N-(4-methyl-3-(trifluoromethyl)phenyl)-2-((1H-pyrrolo[2,3-b]pyridin-4-ylmethyl)amino)-3-pyridinecarboxamide]	< 0.5 µM
> 20 µM	> 20 µM	CN(C)CC(=O)Nc1cc(NC(=O)c2cccnc2NCc2ccnc3[nH]ccc23)ccc1C(C)(C)C [Example 59, N-[4-tert-Butyl-3-(2-dimethylamino-acetylamino)-phenyl]-2-[(1H-pyrrolo[2,3-b]pyridin-4-ylmethyl)-amino]-nicotinamide]	< 0.5 µM
> 20 µM	> 20 µM	O=C(Nc1ccc(C(F)(F)C(F)(F)F)cc1)c1cc(F)cnc1NCc1ccnc2[nH]ccc12 [Example 76, 5-fluoro-N-(4-(pentafluoroethyl)phenyl)-2-((1H-pyrrolo[2,3-b]pyridin-4-ylmethyl)amino)-3-pyridinecarboxamide]	< 0.5 µM
> 20 µM	> 20 µM	CC1(C)CCCNc2cc(NC(=O)c3cccnc3NCc3ccnc4[nH]ccc34)ccc21 [Example 64, N-(5,5-Dimethyl-2,3,4,5-tetrahydro-1H-benzo[b]azepin-8-yl)-2-[(1H-pyrrolo[2,3-b]pyridin-4-ylmethyl)-amino]-nicotinamide]	< 0.5 µM
> 20 µM	> 20 µM	O=C(Nc1ccc(OC(F)(F)F)cc1)c1cc(F)cnc1NCc1ccnc2[nH]ncc12 [Example 126, 5-Fluoro-2-((1H-pyrazolo[3,4-b]pyridin-4-ylmethyl)amino)-N-(4-((trifluoromethyl)oxy)phenyl)-3-pyridinecarboxamide]	< 0.5 µM
> 20 µM	> 20 µM	O=C(Nc1ccc(C(F)(F)C(F)(F)F)cc1)c1cccnc1NCc1ccnc2[nH]ccc12 [Example 67, N-(4-pentafluoroethyl-phenyl)-2-[(1H-pyrrolo[2,3-b]pyridin-4-ylmethyl)-amino]-nicotinamide]	< 0.5 µM
> 20 µM	> 20 µM	Cc1cc(NC(=O)c2cc(F)cnc2NCc2ccnc3[nH]ccc23)ccc1C(C)C [Example 83, 5-fluoro-N-(3-methyl-4-(1-methylethyl)phenyl)-2-((1H-pyrrolo[2,3-b]pyridin-4-ylmethyl)amino)-3-pyridinecarboxamide]	< 0.5 µM
